Data reported in patent publication US20090304818A1, “METHOD OF TREATMENT” (priority 2005, published 2009).

System: sepsis in conscious sheep
Assay: Ang II infusion in E. coli-induced sepsis in conscious sheep (FIG. 1)
Format: in vivo
Conditions: sepsis + Ang II infusion period, four conscious sheep
Protocol: Seven female Merino ewes weighing between 34.2 kg and 47.3 kg were procured for chronic instrumentation. The sheep were held and studied in metabolic cages, with free access to food and water. The animals underwent two separate operative procedures. For all procedures, anaesthesia was induced with sodium thiopentone (15 mg/kg) for endotracheal tube placement (cuff size 10). Maintenance anaesthesia was by means of oxygen/air/isoflurane (1 to 2%). Fractional inspired oxygen was altered to maintain PaO2 at approximately 100 mm Hg, and ventilation was controlled to maintain PaCO2 at approximately 40 mm Hg.
First, a left-sided thoracotomy was performed. The pericardium was opened, and a transit time flow probe (20 mm, Transonics Systems, Ithaca, N.Y.) was placed around the pulmonary artery to measure cardiac output. After two weeks recovery, a left-sided flank incision was made and a retroperitoneal dissection was performed to expose the left renal artery. […]
Analog signals of mean arterial pressure (MAP), central venous pressure (CVP), cardiac output (CO), and renal blood flow (RBF) were collected using a PC using a customized data acquisition system (Labview National Instruments). Data were recorded at 100 Hz for 10 s at every minute throughout the experimental protocol. Total peripheral conductance (TPC) (cardiac output/mean arterial pressure) and renal vascular conductance (RVC) (renal blood flow/mean arterial pressure) were calculated.
During the experimental periods MAP, CVP, CO, RBF and heart rate were measured continuously. Following a 12-hour baseline period, sheep were monitored for a 48 hour control period. After 7 days, sheep were monitored for a 2nd baseline period, followed by induction of sepsis by intravenous administration of a bolus of live E. coli (3.9×10^9 colony forming units in 15 mL saline), followed by a continuous infusion ([…] at 5 mL/h) for 48 h. […]
In both treatments, after the 12-hour baseline period, normal saline (1 mL/kg/h) was infused to avoid hypovolemia. Urinary output was measured and urine sampled every 90 minutes. […]

angiotensin II (DRVYIHPF; Angiotensin-2; UniProt P01019 25-32, looked up) [Ang II, vasoconstricting agent with preferential action on the efferent arteriole of the glomerulus; acts at the AT-1 receptor]
return these variables to normal: renal blood flow (increased in sepsis) | mean arterial pressure (reduced in sepsis) | urine output (reduced in sepsis)
